From patent US20230322767A1, “ARYL SUBSTITUTED PYRROLO-PYRIDINONES AND THERAPEUTIC USES THEREOF” (Bayer Aktiengesellschaft, priority 2020, published 2023)

How the values were obtained:
Type in all cases: biochemical
[1] = molecular target: wild-type Epidermal Growth Factor Receptor (EGFR) (Homo sapiens (Human), UniProt P00533); test: WT-EGFR Kinase Assay (TR-FRET, 2 mM ATP); conditions: read-out: EGFR Wildtyp 2 mM ATP IC50 [mol/l] (median), median or individual measurements
Outline: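 GST-tagged human EGFR (R669–A1210, Sf9-expressed) preincubated 15 min at 22° C with compound in pH 7.0 Hepes/MgCl2 buffer, then reacted at 2 mM ATP with a biotinylated peptide substrate. Phosphorylation detected by TR-FRET (streptavidin-XL665, Tb-cryptate anti-phosphotyrosine) as the 665/620 nm emission ratio.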

CSNK1A1 = CSNK1A1 (Homo sapiens (Human), UniProt P48729); test: CSNK1A1 Assay 2 (ADP-Glo, 1 μM ATP); conditions: median, read-out: CSNK1A1 Assay 2 IC50 [mol/l] (median)
Outline: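 Enzyme (~0.0375 ng/μL) preincubated 15 min at 22° C with compound in HEPES pH 7.5 buffer, then reacted with 1 μM ATP and biotin-Ahx-KRRRAL-pS-VASLPGL peptide. ADP product measured by ADP-Glo luminescence after 1 h ATP depletion and 1 h detection at 22° C.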

CSNK1D = CSNK1D (Homo sapiens (Human), UniProt P48730); test: CSNK1D Assay (ADP-Glo, 1 μM ATP); conditions: median, read-out: CSNK1D IC50 [mol/l] (median)
Outline: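 Enzyme preincubated with compound 15 min at 22° C in 50 mM HEPES pH 7.5 buffer with 10 mM MgCl2, 1 mM DTT; kinase reaction run at 1 μM ATP with biotinylated peptide substrate. ADP formed was detected by ADP-Glo luminescence as the measure of activity.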

Sequence of wild-type Epidermal Growth Factor Receptor (EGFR) (P00533 669-1210): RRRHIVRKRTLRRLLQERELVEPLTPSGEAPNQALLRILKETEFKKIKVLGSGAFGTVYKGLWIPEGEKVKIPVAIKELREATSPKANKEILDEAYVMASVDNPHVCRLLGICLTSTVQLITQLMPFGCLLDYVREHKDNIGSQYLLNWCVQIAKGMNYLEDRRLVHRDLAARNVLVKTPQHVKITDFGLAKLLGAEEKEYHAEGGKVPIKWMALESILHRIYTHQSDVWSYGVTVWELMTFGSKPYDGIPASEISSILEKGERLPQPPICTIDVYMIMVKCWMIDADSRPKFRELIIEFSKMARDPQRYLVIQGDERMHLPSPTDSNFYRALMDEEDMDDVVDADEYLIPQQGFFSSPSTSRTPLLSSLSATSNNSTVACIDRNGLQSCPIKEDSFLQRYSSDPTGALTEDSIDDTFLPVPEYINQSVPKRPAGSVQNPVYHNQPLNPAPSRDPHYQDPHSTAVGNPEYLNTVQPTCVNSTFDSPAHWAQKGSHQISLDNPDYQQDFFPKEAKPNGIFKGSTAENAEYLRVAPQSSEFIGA
Sequence of CSNK1A1 (P48729 whole entry): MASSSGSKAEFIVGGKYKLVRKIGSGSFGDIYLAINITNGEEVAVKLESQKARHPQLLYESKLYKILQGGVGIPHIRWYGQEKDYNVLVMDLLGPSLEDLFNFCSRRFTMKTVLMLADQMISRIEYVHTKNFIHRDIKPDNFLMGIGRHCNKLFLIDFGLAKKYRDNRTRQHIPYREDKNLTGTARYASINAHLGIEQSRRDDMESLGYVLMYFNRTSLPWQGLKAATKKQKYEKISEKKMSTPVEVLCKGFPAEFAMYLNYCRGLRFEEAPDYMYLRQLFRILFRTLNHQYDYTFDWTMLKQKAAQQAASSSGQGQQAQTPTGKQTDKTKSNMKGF
Sequence of CSNK1D (P48730 whole entry): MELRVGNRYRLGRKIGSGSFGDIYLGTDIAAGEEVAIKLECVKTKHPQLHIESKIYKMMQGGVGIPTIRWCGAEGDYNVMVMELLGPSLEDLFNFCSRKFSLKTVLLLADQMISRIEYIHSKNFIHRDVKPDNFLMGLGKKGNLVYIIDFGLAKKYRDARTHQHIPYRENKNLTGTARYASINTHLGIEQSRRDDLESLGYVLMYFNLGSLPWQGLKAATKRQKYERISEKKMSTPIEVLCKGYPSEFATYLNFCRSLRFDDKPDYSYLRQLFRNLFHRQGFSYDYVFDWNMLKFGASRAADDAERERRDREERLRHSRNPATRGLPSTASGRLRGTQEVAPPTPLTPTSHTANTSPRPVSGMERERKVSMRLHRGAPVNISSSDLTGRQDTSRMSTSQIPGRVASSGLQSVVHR

Q: Which results are given for O=C(Cc1ccc(F)cc1)Nc1cc(-c2[nH]c3ccn(C4CC4)c(=O)c3c2-c2ccccc2)ccn1 [Example 159, N-[4-(5-cyclopropyl-4-oxo-3-phenyl-4,5-dihydro-1H-pyrrolo[3,2-c]pyridin-2-yl)pyridin-2-yl]-2-(4-fluorophenyl)acetamide]?
A: IC50 [1]: > 20000 nM; IC50 (CSNK1A1): 0.96 nM; IC50 (CSNK1D): 1.6 nM
